From US20120035247A1, “RNA Interference Mediated Inhibition of Signal Transducer and Activator of Transcription 6 (STAT6) Gene Expression Using Short Interfering Nucleic Acid (siNA)” (Merck Sharp & Dohme Corp., priority 2009, published 2012)
[invAb] = inverted abasic unit; m = 2'-O-methyl; r = 2'-OH (RNA); f = 2'-fluoro

Key:
STAT6 mRNA [1] = experiment: STAT6 siNA screen and dose response in human A549 cells, STAT6 mRNA by quantitative RT-PCR (Taqman); assay type: cell-based; details: for % KD STAT6 mRNA 10 nM / IC50: Table 4, human A549 cells; for % KD STAT6 mRNA 10 nM / IC50 / % KD STAT6: mean ± S.D.; for % KD STAT6 10 nM: Table 5, A549 cells, three experiments, mean ± standard deviation; for % KD STAT6: human A549 cells, 10 nM siNA, 24 hrs, normalized to GAPDH and non-targeting control, n = 3
In short: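 A549 cells were transfected with siNA–RNAiMax complexes at a final 10 nM siNA and incubated 24 h without a medium change. STAT6 mRNA was measured by TaqMan qRT-PCR on cell lysates. Knock-down was calculated by the comparative Ct (ΔΔCt) method against the non-targeting control siNA, with relative expression taken as 2^−ΔΔCt.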

STAT6 mRNA [2] = experiment: STAT6 siNA screen in mouse NIH 3T3 cells, STAT6 mRNA by quantitative RT-PCR (Taqman); assay type: cell-based; details: mouse NIH3T3 cells, 10 nM siNA, 24 hrs, normalized to GAPDH and non-targeting control, n = 2
In short: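 NIH 3T3 cells, 5000/well, transfected after 24 h with siNA (10 nM final) via RNAiMax and harvested 24 h later. STAT6 mRNA quantified by TaqMan RT-qPCR with GAPDH; knock-down by comparative Ct (2^−ΔΔCt) against non-targeting control siNA.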

[3] = system: human STAT4 mRNA transcript; experiment: STAT4 specificity screen in human A549 cells, STAT4 mRNA by quantitative RT-PCR; assay type: cell-based; details: three experiments, mean ± standard deviation
Description: A549 (human; ATCC cat# CCL-185): Cells were cultured at 37° C. in the presence of 5% CO2 and grown in Ham's F12K medium with 2 mM L-glutamine adjusted to contain 1.5 g/L sodium bicarbonate and supplemented with fetal bovine serum at a final concentration of 10%, 100 μg/mL of streptomycin, and 100 U/mL penicillin.
A series of probes and primers were used to detect the various mRNA transcripts of the genes of 13-Actin (human cell line only), and of STATE and GAPDH in mouse and human cell lines. All Taqman probes and primers for the experiments here-in described were supplied as pre-validated sets by Applied Biosystems, Inc. (see Table 2).
The assays were performed on an ABI 7900 instrument, according to the manufacturer's instructions. A TaqMan Gene Expression Master Mix (provided in the Cells-to-CTT™, Applied Biosystems, Cat #4399002) was used. The PCR reactions were carried out at 50° C. for 2 min, 95° C. for 20 min followed by 40 cycles at 95° C. for 15 secs and 60° C. for 1 min.
The expression level of the gene of interest and % knock-down was calculated using Comparative Ct method:
ΔΔCt=ΔCt(Target siNA)−ΔCt(NTC)
Relative expression level=2^−ΔΔCt
The non-targeting control siNA was, unless otherwise indicated, chosen as the value against which to calculate the % knock-down, because it is the most relevant control.
The siNAs from Table 4 were tested in human A549 cell line at a lower concentration (1 nM versus the original screening concentration of 10 nM) to determine the effect of the STATE siRNAs on the mRNA transcript of human STAT4.

eosinophilia and AHR = details: rat model of allergic disease; cited from earlier work
mouse spleen T cells = details: in vitro; cited from earlier work

Compound | % KD STAT6 mRNA 10 nM (STAT6 mRNA [1]) | IC50 (STAT6 mRNA [1]) [pM] | % KD STAT6 10 nM (STAT6 mRNA [1]) [%] | % KD STAT6 (STAT6 mRNA [1]) [%] | % KD STAT6 (STAT6 mRNA [2]) [%] | % KD STAT4 1 nM [3] [%] | AHR (eosinophilia and AHR) | eosinophilia (eosinophilia and AHR) | differentiation of mouse spleen T cells into the Th2 phenotype (mouse spleen T cells)
30005-DC: STAT6 siNA duplex; sense SEQ ID NO: 74, antisense SEQ ID NO: 75; target CUGCACAGCUUGAUAGAAA, site 755 (sense CUGCACAGCUUGAUAGAAATT; antisense UUUCUAUCAAGCUGUGCAGUU; sense: DNA at AGT, 2'-fluoro at CU, [invAb] at 5' end, 3' end, backbone not given here; antisense: sugars from the 5' end rrrffmffmmmffmfmfmmmm, backbone not given here) [STAT6 siNA duplex; target CUGCACAGCUUGAUAGAAA, site 755] | 70 ± 8.9% | 23.2 ± 10.3 | 70.0 ± 8.9 | 70 ± 8.9 | −8 ± 0.5 | 13.2 ± 14.4 | – | – | –
29999-DC: STAT6 siNA duplex; sense SEQ ID NO: 62, antisense SEQ ID NO: 63; target GUUCGAUUCCUGUUGGGCU, site 1148 (sense GUUCGAUUCCUGUUGGGCUTT; antisense AGCCCAACAGGAAUCGAACUU; sense: DNA at AGT, 2'-fluoro at CU, [invAb] at 5' end, 3' end, backbone not given here; antisense: sugars from the 5' end rrrffmmfmmmmmffmmmfmm, backbone not given here) [STAT6 siNA duplex; target GUUCGAUUCCUGUUGGGCU, site 1148] | 72.8 ± 1^ % | 48.7 ± 21.7 | 72.8 ± 1.0 | 72.8 ± 1 | 53.4 ± 3.1 | −17.4 ± 20.9 | – | – | –
NC(=O)c1cnc(Nc2ccc(N3CCOCC3)cc2)nc1NCc1c(F)ccc(F)c1F [YM341619] | – | – | – | – | – | – | inhibited | inhibited | inhibited
